Reference: BindingDB's records for patent US20240343694 (Korea Reserarch Institute of Chemical Technology, 2024)

Experiments:
[1] = target: T1, Receptor tyrosine-protein kinase erbB-2 [1-775,'YVMA',776-1255] (Homo sapiens, UniProt P04626); test: Inhibitory Activity of Compounds Against HER2 A775_G776insYVMA mutant enzyme
T1 construct: 1-775,'YVMA',776-1255
Description: The activity of the compounds of the present invention against HER mutant enzymes was measured using the HTRF system purchased by Cisbio as follows. As a HER2 mutant enzyme, the HER2 A775_G776insYVMA mutant enzyme was used by purchasing a recombinant protein provided by Carna Biosciences.The composition of the assay buffer used for activity measurement was 50 mM tris-HCl pH 7.5, 100 mM NaCl, 7.5 mM MgCl2, 3 mM KCl, 0.01% tween 20, 0.1% BSA, and 1 mM DTT. In addition thereto, the enzymatic reaction was performed using a peptide substrate labeled with ATP at a concentration of […] and biotin at a concentration of […]. The analysis of the activity inhibitory effect of the compounds on HER2 A775_G776insYVMA mutation was performed according to the following method.Component 1:4 μL of HER2 A775_G776insYVMA mutant enzymeComponent 2:2 μL of compound solutionComponent 3:4 μL of ATP and a biotin labeled peptideThe enzyme reaction begins by first mixing component 1 and component 2 and then adding component 3 thereto. After the reaction at 37° C. for 2 hours, […] of a measurement solution consisting of streptavidin-XL665 and a europium-labeled anti-phosphotyrosine antibody purchased from Cisbio was added to the enzyme reaction solution and reacted at room temperature for 1 hour. Finally, the ratio of fluorescence values at 615 nm and 665 nm was measured using Perkin-Elmer's Envision equipment to calculate enzyme activity and confirm the inhibitory ability of the compounds.

[2] = target: T2, Epidermal growth factor receptor [1-763,'FHEA',764-1210] (UniProt P00533); test: Inhibitory Activity of Compounds Against EGFR Mutant Enzyme
T2 construct: 1-763,'FHEA',764-1210
T2 sequence (P00533 with tags, fused parts or gaps INS763FHEA limits assumed): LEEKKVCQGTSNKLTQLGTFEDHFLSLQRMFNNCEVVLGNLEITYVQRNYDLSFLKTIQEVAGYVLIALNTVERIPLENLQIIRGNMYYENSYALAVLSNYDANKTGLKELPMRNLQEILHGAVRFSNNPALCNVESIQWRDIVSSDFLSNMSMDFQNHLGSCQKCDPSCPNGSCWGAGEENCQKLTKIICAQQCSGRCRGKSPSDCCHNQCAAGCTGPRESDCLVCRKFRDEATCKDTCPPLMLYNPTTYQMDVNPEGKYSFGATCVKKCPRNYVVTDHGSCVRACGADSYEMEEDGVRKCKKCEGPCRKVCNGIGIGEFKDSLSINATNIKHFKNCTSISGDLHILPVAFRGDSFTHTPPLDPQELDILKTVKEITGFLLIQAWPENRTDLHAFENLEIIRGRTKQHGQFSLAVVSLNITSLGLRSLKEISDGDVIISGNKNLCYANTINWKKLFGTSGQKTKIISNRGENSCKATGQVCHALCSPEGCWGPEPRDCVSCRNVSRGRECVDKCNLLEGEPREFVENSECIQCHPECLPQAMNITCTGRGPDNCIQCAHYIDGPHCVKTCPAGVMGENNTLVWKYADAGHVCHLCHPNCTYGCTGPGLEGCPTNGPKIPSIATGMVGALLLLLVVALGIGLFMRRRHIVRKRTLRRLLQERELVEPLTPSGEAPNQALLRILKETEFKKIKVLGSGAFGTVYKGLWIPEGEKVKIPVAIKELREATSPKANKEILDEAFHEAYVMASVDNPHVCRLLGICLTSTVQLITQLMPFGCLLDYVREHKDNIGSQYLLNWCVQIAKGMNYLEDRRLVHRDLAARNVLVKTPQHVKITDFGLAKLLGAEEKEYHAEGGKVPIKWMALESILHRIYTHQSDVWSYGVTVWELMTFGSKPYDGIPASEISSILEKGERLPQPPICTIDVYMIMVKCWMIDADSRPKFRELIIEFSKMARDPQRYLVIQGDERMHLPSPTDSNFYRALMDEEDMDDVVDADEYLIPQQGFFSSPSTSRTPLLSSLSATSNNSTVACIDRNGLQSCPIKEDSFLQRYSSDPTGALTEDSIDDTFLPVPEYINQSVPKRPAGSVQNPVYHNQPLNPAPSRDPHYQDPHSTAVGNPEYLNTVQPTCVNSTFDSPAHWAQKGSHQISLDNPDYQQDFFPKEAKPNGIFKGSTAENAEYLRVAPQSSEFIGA
Description: (§1) The activity of the compounds of the present invention against EGFR mutant enzymes was measured using the HTRF system purchased from Cisbio as follows. For an EGFR mutant enzyme, the EGFR del19 enzyme was a recombinant protein purchased from Carna Biosciences, and the EGFR A763_Y764insFHEA enzyme was a recombinant protein purchased from SignalChem, respectively.The composition of the assay buffer used for activity measurement was 50 mM tris-HCl pH 7.5, 100 mM NaCl, 7.5 mM MgCl2, 3 mM KCl, 0.01% tween 20, 0.1% BSA, and 1 mM DTT. An enzymatic reaction was performed using a peptide substrate labeled with ATP at a concentration of […] and biotin at a concentration of […]. The analysis of the inhibitory effect of the compounds on EGFR activity was performed according to the following method.Component 1:4 μL of EGFR mutant enzymeComponent 2:2 μL of compound solutionComponent 3:4 μL of ATP and a biotin labeled peptideThe enzyme reaction begins by first mixing component 1 and component 2 and then adding component 3 thereto. After the reaction at 37° C. for 2 hours, […] of a measurement solution consisting of streptavidin-XL665 and a europium-labeled anti-phosphotyrosine antibody purchased from Cisbio was added to the enzyme reaction solution and reacted at room temperature for 1 hour. Finally, the ratio of fluorescence values at 615 nm and 665 nm was measured using Perkin-Elmer's Envision instrument to calculate enzyme activity and confirm the inhibitory ability of the compounds.

[3] = target: T3, Epidermal growth factor receptor [DEL746-750] (Homo sapiens, UniProt P00533); test: as above
T3 construct: gene EGFR
T3 sequence (P00533 with tags, fused parts or gaps DEL746-750 limits assumed, stated change not applied): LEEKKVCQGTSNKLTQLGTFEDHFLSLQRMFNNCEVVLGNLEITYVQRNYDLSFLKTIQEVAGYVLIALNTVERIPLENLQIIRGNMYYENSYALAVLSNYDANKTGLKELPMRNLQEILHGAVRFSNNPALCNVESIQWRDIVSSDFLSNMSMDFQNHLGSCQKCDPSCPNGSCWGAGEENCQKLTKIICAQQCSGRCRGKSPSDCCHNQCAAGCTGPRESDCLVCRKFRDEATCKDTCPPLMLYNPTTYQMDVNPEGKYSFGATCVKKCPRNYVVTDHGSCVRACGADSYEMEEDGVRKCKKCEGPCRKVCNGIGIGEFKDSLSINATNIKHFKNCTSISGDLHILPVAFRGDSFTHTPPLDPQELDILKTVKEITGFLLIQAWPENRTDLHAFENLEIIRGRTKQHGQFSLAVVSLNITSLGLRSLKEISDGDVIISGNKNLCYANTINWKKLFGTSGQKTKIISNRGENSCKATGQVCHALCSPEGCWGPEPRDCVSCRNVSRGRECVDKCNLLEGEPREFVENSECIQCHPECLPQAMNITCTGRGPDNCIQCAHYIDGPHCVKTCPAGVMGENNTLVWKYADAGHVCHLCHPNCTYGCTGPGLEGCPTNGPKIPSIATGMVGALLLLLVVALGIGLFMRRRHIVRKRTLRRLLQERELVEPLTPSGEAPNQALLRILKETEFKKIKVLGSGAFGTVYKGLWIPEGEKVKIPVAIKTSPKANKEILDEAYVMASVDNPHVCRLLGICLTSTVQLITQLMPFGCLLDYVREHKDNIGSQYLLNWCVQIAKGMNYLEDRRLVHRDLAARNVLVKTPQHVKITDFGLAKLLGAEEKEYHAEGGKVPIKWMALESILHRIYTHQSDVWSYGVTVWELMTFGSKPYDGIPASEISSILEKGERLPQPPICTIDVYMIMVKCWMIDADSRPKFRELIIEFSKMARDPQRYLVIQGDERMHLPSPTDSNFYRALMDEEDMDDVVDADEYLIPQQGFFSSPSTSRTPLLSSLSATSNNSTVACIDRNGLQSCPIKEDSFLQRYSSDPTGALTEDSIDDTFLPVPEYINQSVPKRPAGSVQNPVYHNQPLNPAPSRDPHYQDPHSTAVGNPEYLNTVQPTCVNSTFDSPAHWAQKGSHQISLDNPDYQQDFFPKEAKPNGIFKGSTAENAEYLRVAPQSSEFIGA
Description: as §1

T1 sequence (P04626 with tags, fused parts or gaps INS775YVMA limits assumed): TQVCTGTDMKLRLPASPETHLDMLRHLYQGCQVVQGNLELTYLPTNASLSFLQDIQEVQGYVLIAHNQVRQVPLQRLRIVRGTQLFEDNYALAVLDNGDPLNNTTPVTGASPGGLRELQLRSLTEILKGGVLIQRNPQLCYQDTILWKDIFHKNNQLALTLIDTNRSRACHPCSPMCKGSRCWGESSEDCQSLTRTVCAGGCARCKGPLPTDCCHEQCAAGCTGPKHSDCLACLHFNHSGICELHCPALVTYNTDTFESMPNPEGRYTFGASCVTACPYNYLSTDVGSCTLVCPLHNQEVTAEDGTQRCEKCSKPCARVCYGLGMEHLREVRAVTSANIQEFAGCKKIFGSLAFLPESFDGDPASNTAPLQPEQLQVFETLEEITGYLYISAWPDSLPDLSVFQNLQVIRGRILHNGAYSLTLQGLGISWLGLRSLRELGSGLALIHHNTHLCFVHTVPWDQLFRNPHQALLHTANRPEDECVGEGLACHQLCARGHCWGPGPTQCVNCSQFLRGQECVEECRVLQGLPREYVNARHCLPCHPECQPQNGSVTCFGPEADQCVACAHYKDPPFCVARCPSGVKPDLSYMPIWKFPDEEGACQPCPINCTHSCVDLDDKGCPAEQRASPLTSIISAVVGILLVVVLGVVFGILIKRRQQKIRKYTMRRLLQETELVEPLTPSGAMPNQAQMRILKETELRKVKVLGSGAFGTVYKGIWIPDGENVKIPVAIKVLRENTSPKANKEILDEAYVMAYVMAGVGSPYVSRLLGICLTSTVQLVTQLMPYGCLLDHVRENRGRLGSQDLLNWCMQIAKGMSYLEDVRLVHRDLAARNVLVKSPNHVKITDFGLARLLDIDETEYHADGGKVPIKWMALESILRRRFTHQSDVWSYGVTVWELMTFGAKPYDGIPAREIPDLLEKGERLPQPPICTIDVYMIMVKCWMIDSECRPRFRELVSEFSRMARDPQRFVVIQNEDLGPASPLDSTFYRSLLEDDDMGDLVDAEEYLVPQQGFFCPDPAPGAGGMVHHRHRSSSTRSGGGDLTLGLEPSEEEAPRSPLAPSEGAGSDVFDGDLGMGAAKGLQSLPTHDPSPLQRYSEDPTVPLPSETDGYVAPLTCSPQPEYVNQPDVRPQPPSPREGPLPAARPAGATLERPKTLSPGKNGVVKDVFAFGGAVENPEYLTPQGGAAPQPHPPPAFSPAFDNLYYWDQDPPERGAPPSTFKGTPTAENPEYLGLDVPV

IC50 [1]	IC50 [2]	IC50 [3]	Structure (SMILES)
2 nM	< 1 nM	< 1 nM	Cc1cccc(Nc2nc(Cl)ncc2Cl)c1NS(C)(=O)=O [US20240343694, Example 46]
6 nM	< 1 nM	< 1 nM	CC(C)c1cccc(Nc2nc(Cl)ncc2Cl)c1N(C)S(C)(=O)=O [US20240343694, Example 47]
20 nM	7 nM	3 nM	Cc1cccc(Nc2nc(Cl)ncc2Cl)c1N(C)S(C)(=O)=O [US20240343694, Example 48]
60 nM	10 nM	0.1 nM	CCN(c1c(C)cccc1Nc1nc(Cl)ncc1Cl)S(C)(=O)=O [US20240343694, Example 49]
60 nM	3 nM	< 1 nM	CCc1cccc(Nc2nc(Cl)ncc2Cl)c1NS(C)(=O)=O [US20240343694, Example 50]
30 nM	< 1 nM	< 1 nM	CCc1cccc(Nc2nc(Cl)ncc2Cl)c1N(C)S(C)(=O)=O [US20240343694, Example 51]
4 nM	< 1 nM	< 1 nM	CCc1cccc(Nc2nc(Cl)ncc2Cl)c1NS(=O)(=O)CC [US20240343694, Example 52]
10 nM			Cc1ccc(Nc2nc(Cl)ncc2Cl)c(N(C)S(C)(=O)=O)c1C [US20240343694, Example 53]
10 nM	< 1 nM	< 1 nM	Cc1ccc(Nc2nc(Cl)ncc2Cl)c(NS(C)(=O)=O)c1C [US20240343694, Example 54]
< 1 nM	< 1 nM	< 1 nM	Cc1ccc(Nc2nc(Cl)ncc2Cl)c(N(C)S(C)(=O)=O)c1 [US20240343694, Example 55]
< 1 nM	< 1 nM	< 1 nM	Cc1ccc(Nc2nc(Cl)ncc2Cl)c(NS(C)(=O)=O)c1 [US20240343694, Example 56]
< 1 nM	< 1 nM	< 1 nM	CS(=O)(=O)N1CCCc2cccc(Nc3nc(Cl)ncc3Cl)c21 [US20240343694, Example 57]
90 nM	10 nM	< 1 nM	C=CC(=O)Nc1cc(Nc2ncc(Cl)c(Nc3cccc4c3N(S(C)(=O)=O)CCC4)n2)c(OC)cc1N(C)CCN(C)C(=O)OC(C)(C)C [US20240343694, Example 58]
20 nM	< 1 nM	< 1 nM	C=CC(=O)Nc1cc(N)c(OC)cc1N1CCC(N(C)C)CC1 [US20240343694, Example 59]
10 nM	< 1 nM	< 1 nM	C=CC(=O)Nc1cc(N)c(OC)cc1N1CCC(N2CCN(C)CC2)CC1 [US20240343694, Example 60]
1 nM	< 1 nM	< 1 nM	COC(=O)c1cnc(Cl)nc1Nc1cccc2c1N(S(C)(=O)=O)CCC2 [US20240343694, Example 61]
3 nM			CC(C)OC(=O)c1cnc(Cl)nc1Nc1cccc2c1N(S(C)(=O)=O)CCC2 [US20240343694, Example 62]
< 1 nM			C=CC(=O)Nc1cc(N)c(OC)cc1N(C)CCN1CCOCC1 [US20240343694, Example 63]

Further lines, the molecule ahead of its results:

Structure (SMILES)	IC50 [1]	IC50 [2]	IC50 [3]
Cc1ccc(S(=O)(=O)Nc2ccccc2Nc2nc(Cl)ncc2F)cc1 [US20240343694, Example 23]	30 nM	3 nM	< 1 nM
Cc1cnc(Cl)nc1Nc1ccccc1NS(C)(=O)=O [US20240343694, Example 24]	27 nM	3 nM	< 1 nM
Cc1ccc(S(=O)(=O)Nc2ccccc2Nc2nc(Cl)ncc2C)cc1 [US20240343694, Example 25]	6 nM	< 1 nM	< 1 nM
CCCS(=O)(=O)Nc1ccccc1Nc1nc(Cl)ncc1C [US20240343694, Example 26]	80 nM	200 nM	4 nM
CCS(=O)(=O)Nc1ccccc1Nc1nc(Cl)ncc1C [US20240343694, Example 27]	30 nM	9 nM	3 nM
Cc1cnc(Cl)nc1Nc1ccccc1NS(=O)(=O)c1ccccc1 [US20240343694, Example 28]	70 nM	8 nM	< 1 nM
C=CC(=O)Nc1cc(N)c(OC)cc1N(C)CCN1CCCC1 [US20240343694, Example 29]	5 nM	< 1 nM	< 1 nM
C=CC(=O)Nc1cc(N)c(OC)cc1OCCN1CCCC1 [US20240343694, Example 30]	4 nM	< 1 nM	< 1 nM
C=CC(=O)Nc1cc(N)c(OC)cc1N(C)CCN1CCCCC1 [US20240343694, Example 31]	0.3 nM	< 1 nM	< 1 nM
C=CC(=O)Nc1cc(N)c(OC)cc1N(C)CCN(C(=O)OCc1ccccc1)C(C)C [US20240343694, Example 32]	8 nM	1 nM	< 1 nM
C=CC(=O)Nc1cc(Nc2ncc(Cl)c(Nc3ccccc3NS(C)(=O)=O)n2)c(OC)cc1N(C)CCN(C(=O)OCc1ccccc1)C(C)C [US20240343694, Example 33]	7 nM	< 1 nM	< 1 nM
C=CC(=O)Nc1cc(N)c(OC)cc1N(C)CCN(C)C(=O)OCc1ccccc1 [US20240343694, Example 34]	20 nM	1 nM	< 1 nM
C=CC(=O)Nc1cc(Nc2ncc(Cl)c(Nc3ccccc3NS(C)(=O)=O)n2)c(OC)cc1N(C)CCN(C)C(=O)OCc1ccccc1 [US20240343694, Example 35]	27 nM	3 nM	< 1 nM
COc1cc(N2CCOCC2)c(N)cc1Nc1ncc(Cl)c(Nc2ccccc2NS(C)(=O)=O)n1 [US20240343694, Example 36]	10 nM	1 nM	< 1 nM
COc1cc(N2CCN(C)CC2)c(N)cc1Nc1ncc(Cl)c(Nc2ccccc2NS(C)(=O)=O)n1 [US20240343694, Example 37]	26 nM	2 nM	< 1 nM
COc1cc(N(C)CCN(C)C)c(N)cc1Nc1ncc(Cl)c(Nc2ccccc2NS(C)(=O)=O)n1 [US20240343694, Example 38]	14 nM	2 nM	< 1 nM
CN(c1ccccc1Nc1nc(Cl)ncc1Cl)S(C)(=O)=O [US20240343694, Example 39]	8 nM	< 1 nM	< 1 nM
CCS(=O)(=O)N(C)c1ccccc1Nc1nc(Cl)ncc1Cl [US20240343694, Example 40]	4 nM	1 nM	< 1 nM
CCN(c1ccccc1Nc1nc(Cl)ncc1Cl)S(C)(=O)=O [US20240343694, Example 41]	9 nM	1 nM	< 1 nM
CC(C)N(c1ccccc1Nc1nc(Cl)ncc1Cl)S(C)(=O)=O [US20240343694, Example 42]	6 nM	< 1 nM	< 1 nM
CCN(c1ccccc1Nc1nc(Cl)ncc1Cl)S(=O)(=O)CC [US20240343694, Example 43]	8 nM	< 1 nM	< 1 nM
CS(=O)(=O)Nc1c(Cl)cccc1Nc1nc(Cl)ncc1Cl [US20240343694, Example 44]	6 nM	< 1 nM	< 1 nM
CN(c1c(Cl)cccc1Nc1nc(Cl)ncc1Cl)S(C)(=O)=O [US20240343694, Example 45]	8 nM	< 1 nM	< 1 nM
